Measurements from patent US8530472B2, “Ethynyl derivatives” (Hoffmann-La Roche Inc., priority 2011, dated 2013).

Molecular target: T1, human mGlu5a receptor (Homo sapiens, UniProt P41594)
T1 construct: expressed in transfected cells
Assay: Intracellular Ca2+ mobilization assay (mGlu5 PAM)
Format: cell-based
Details: for Emax: HEK293, maximal response in % of the maximal stimulatory effect obtained with saturating concentrations of L-glutamate, HEK-293 human mGlu5a cells, read-out: Eff. (%); for EC50: HEK-293 cells stably transfected with human mGlu5a receptor, L-glutamate added at EC20 (typically around 80 μM) after 10-30 min pre-incubation with test compound, read-out: EC50 (nM) mGlu5PAM
Experimental: A monoclonal HEK-293 cell line stably transfected with a cDNA encoding for the human mGlu5a receptor was generated; for the work with mGlu5 Positive Allosteric Modulators (PAMs), a cell line with low receptor expression levels and low constitutive receptor activity was selected to allow the differentiation of agonistic versus PAM activity. Cells were cultured according to standard protocols (Freshney, 2000) in Dulbecco's Modified Eagle Medium with high glucose supplemented with 1 mM glutamine, 10% (vol/vol) heat-inactivated bovine calf serum, Penicillin/Streptomycin, 50 μg/ml hygromycin and 15 μg/ml blasticidin (all cell culture reagents and antibiotics from Invitrogen, Basel, Switzerland).
About 24 hrs before an experiment, 5×10^4 cells/well were seeded in poly-D-lysine coated, black/clear-bottomed 96-well plates. The cells were loaded with 2.5 μM Fluo-4AM in loading buffer (1×HBSS, 20 mM HEPES) for 1 hr at 37° C. and washed five times with loading buffer. The cells were transferred into a Functional Drug Screening System 7000 (Hamamatsu, Paris, France), and 11 half logarithmic serial dilutions of test compound at 37° C. were added and the cells were incubated for 10-30 min. with on-line recording of fluorescence. Following this pre-incubation step, the agonist L-glutamate was added to the cells at a concentration corresponding to EC20 (typically around 80 μM) with on-line recording of fluorescence; in order to account for day-to-day variations in the responsiveness of cells, the EC20 of glutamate was determined immediately ahead of each experiment by recording of a full dose-response curve of glutamate.
Responses were measured as peak increase in fluorescence minus basal (i.e. fluorescence without addition of L-glutamate), normalized to the maximal stimulatory effect obtained with saturating concentrations of L-glutamate. Graphs were plotted with the % maximal stimulatory using XLfit, a curve fitting program that iteratively plots the data using Levenburg Marquardt algorithm. The single site competition analysis equation used was y=A+((B−A)/(1+((x/C)D))), where y is the % maximal stimulatory effect, A is the minimum y, B is the maximum y, C is the EC50, x is the log 10 of the concentration of the competing compound and D is the slope of the curve (the Hill Coefficient). From these curves the EC50 (concentration at which half maximal stimulation was achieved), the Hill coefficient as well as the maximal response in % of the maximal stimulatory effect obtained with saturating concentrations of L-glutamate were calculated.
A depression of the signal observed after addition of the EC20 concentration of L-glutamate was indicative of an inhibitory activity of the test compound.

T1 sequence (P41594 21-1180 isoform P41594-2 limits assumed): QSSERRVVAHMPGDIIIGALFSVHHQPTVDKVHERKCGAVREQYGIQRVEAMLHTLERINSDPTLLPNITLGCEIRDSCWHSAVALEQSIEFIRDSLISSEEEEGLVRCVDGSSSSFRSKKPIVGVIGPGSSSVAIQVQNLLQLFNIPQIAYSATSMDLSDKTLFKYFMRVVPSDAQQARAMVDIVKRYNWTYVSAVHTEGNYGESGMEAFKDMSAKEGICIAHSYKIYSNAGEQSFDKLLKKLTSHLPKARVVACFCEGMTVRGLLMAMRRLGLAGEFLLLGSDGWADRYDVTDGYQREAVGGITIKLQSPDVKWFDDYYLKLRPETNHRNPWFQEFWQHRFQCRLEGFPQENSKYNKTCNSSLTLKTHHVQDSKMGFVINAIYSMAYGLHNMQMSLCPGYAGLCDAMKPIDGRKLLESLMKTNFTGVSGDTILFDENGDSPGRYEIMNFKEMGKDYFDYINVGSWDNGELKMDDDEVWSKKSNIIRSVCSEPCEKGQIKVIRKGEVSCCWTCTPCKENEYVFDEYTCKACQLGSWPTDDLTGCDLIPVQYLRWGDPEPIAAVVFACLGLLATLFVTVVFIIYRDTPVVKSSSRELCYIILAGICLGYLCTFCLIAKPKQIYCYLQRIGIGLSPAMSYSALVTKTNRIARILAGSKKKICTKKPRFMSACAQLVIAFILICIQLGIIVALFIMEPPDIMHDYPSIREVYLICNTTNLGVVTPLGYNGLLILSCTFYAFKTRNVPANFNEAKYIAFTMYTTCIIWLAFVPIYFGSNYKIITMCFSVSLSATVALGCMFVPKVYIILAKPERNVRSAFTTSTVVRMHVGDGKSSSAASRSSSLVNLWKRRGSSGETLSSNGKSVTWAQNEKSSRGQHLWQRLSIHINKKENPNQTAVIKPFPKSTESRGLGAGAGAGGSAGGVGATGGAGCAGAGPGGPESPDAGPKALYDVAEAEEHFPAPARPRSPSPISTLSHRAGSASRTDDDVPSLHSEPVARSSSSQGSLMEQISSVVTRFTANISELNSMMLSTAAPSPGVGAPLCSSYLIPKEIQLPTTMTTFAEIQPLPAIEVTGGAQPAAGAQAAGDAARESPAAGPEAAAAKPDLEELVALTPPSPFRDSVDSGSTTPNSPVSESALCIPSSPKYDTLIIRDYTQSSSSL

SMILES | Emax | EC50
CC(C)(C)C(=O)Nc1ccc(C#Cc2cccc(Cl)c2)nn1 [Example 16, N-[6-(3-Chloro-phenylethynyl)-pyridazin-3-yl]-2,2-dimethyl-propionamide] | 45% | 7 nM
COCC(=O)Nc1ccc(C#Cc2ccccc2)cn1 [Example 10, 2-Methoxy-N-(5-phenylethynyl-pyridin-2-yl)-acetamide] | 43% | 49 nM
CC(C)(C)C(=O)Nc1ncc(C#Cc2ccccc2)cn1 [Example 7, 2,2-Dimethyl-N-(5-phenylethynyl-pyrimidin-2-yl)-propionamide] | 59% | 56 nM
CC(C)CC(=O)Nc1ccc(C#Cc2ccccc2)cn1 [Example 4, 3-Methyl-N-(5-phenylethynyl-pyridin-2-yl)-butyramide] | 83% | 71 nM
CC(C)(C)C(=O)Nc1ccc(C#Cc2ccccc2)nn1 [Example 9, 2,2-Dimethyl-N-(6-phenylethynyl-pyridazin-3-yl)-propionamide] | 73% | 6 nM
CC(C)(C)C(=O)Nc1ccc(C#Cc2ccccc2)cn1 [Example 1, 2,2-Dimethyl-N-(5-phenylethynyl-pyridin-2-yl)-propionamide] | 72% | 19 nM
COC(C)(C)C(=O)Nc1ccc(C#Cc2cccc(F)c2)cn1 [Example 13, N-[5-(3-Fluoro-phenylethynyl)-pyridin-2-yl]-2-methoxy-2-methyl-propionamide] | 54% | 85 nM
COC(C)(C)C(=O)Nc1ccc(C#Cc2cc(F)ccc2F)cn1 [Example 14, N-[5-(2,5-Difluoro-phenylethynyl)-pyridin-2-yl]-2-methoxy-2-methyl-propionamide] | 47% | 94 nM
CCCCC(=O)Nc1ccc(C#Cc2ccccc2)cn1 [Example 3, Pentanoic acid (5-phenylethynyl-pyridin-2-yl)-amide] | 84% | 48 nM
CC(C)(C)C(=O)Nc1ccc(C#Cc2cccc(F)c2)cn1 [Example 11, N-[5-(3-Fluoro-phenylethynyl)-pyridin-2-yl]-2,2-dimethyl-propionamide] | 44% | 15 nM
CCCC(C)C(=O)Nc1ccc(C#Cc2ccccc2)cn1 (racemic) [Example 5, (RS)-2-Methyl-pentanoic acid (5-phenylethynyl-pyridin-2-yl)-amide] | 75% | 48 nM
CN(C(=O)C(C)(C)C)c1ncc(C#Cc2ccccc2)cn1 [Example 8, 2,2,N-Trimethyl-N-(5-phenylethynyl-pyrimidin-2-yl)-propionamide] | 74% | 52 nM
CCCC(=O)Nc1ccc(C#Cc2ccccc2)cn1 [Example 2, N-(5-Phenylethynyl-pyridin-2-yl)-butyramide] | 52% | 70 nM
CC(C)(C(=O)Nc1ccc(C#Cc2cccc(Cl)c2)cn1)C(F)(F)F [Example 15, N-[5-(3-Chloro-phenylethynyl)-pyridin-2-yl]-3,3,3-trifluoro-2,2-dimethyl-propionamide] | 46% | 19 nM
CSCC(=O)Nc1ccc(C#Cc2ccccc2)cn1 [Example 6, 2-Methylsulfanyl-N-(5-phenylethynyl-pyridin-2-yl)-acetamide] | 47% | 18 nM
COC(C)(C)C(=O)Nc1ccc(C#Cc2ccccc2)cn1 [Example 12, 2-Methoxy-2-methyl-N-(5-phenylethynyl-pyridin-2-yl)-propionamide] | 68% | 77 nM
